Measurements published in PubChem BioAssay (NCI).
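The compound was tested at five concentrations on cells cultured in 96-well plates, with a 48-hour exposure period. TGI marks complete inhibition of growth.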

Columns and labels:
Experiment in all cases: growth of human tumour cells (NCI), 48 h
[1] = tested on: MALME-3M melanoma
[2] = tested on: SF-268 CNS
[3] = tested on: HS 578T breast
[4] = tested on: TK-10 renal
[5] = tested on: SNB-75 CNS
[6] = tested on: NCI/ADR-RES ovarian
[7] = tested on: HOP-62 NSCLC
[8] = tested on: CAKI-1 renal
[9] = tested on: RPMI-8226 leukemia
[10] = tested on: EKVX NSCLC
[11] = tested on: SK-MEL-28 melanoma
[12] = tested on: MDA-MB-231 breast
[13] = tested on: ACHN renal
[14] = tested on: HCT-116 colon
[15] = tested on: PC-3 prostate
[16] = tested on: U251 CNS
[17] = tested on: OVCAR-4 ovarian
[18] = tested on: KM12 colon
[19] = tested on: HT29 colon
[20] = tested on: K-562 leukemia
[21] = tested on: UACC-257 melanoma
[22] = tested on: NCI-H226 lung
[23] = tested on: OVCAR-8 ovarian
[24] = tested on: NCI-H522 lung
[25] = tested on: SW-620 colon
[26] = tested on: HCC-2998 colon
[27] = tested on: UO-31 renal
[28] = tested on: MDA-N
[29] = tested on: BT-549 breast
[30] = tested on: COLO 205 colon
[31] = tested on: OVCAR-5 ovarian
[32] = tested on: SK-MEL-5 melanoma
[33] = tested on: NCI-H23 lung
[34] = tested on: UACC-62 melanoma
[35] = tested on: A498 renal
[36] = tested on: HCT-15 colon
[37] = tested on: OVCAR-3 ovarian
[38] = tested on: SK-MEL-2 melanoma
[39] = tested on: SR leukemia
[40] = tested on: SF-295 CNS
[41] = tested on: DU-145 prostate
[42] = tested on: MCF7 breast
[43] = tested on: SN12C renal
[44] = tested on: IGROV1 ovarian
[45] = tested on: HL-60(TB) leukemia
[46] = tested on: T-47D breast
[47] = tested on: MOLT-4 leukemia
[48] = tested on: LOX IMVI melanoma
[49] = tested on: MDA-MB-435
[50] = tested on: SNB-19 CNS
[51] = tested on: RXF 393 renal
[52] = tested on: 786-0 renal
[53] = tested on: NCI-H460 lung
[54] = tested on: M14 melanoma
[55] = tested on: SK-OV-3 ovarian
[56] = tested on: A549 NSCLC
[57] = tested on: CCRF-CEM leukemia
[58] = tested on: HOP-92 NSCLC
[59] = tested on: SF-539 CNS

`Cc1cccc(-n2c(C)nc3ccc(NC(=S)Nc4ccccc4)cc3c2=O)c1` gave a TGI [1] of over 100 µM, a TGI [2] of over 100 µM and a TGI [3] of over 100 µM. For the same compound, the TGI [4] was over 100 µM, the TGI [5] was over 100 µM and the TGI [6] was over 100 µM. The TGI [7] was over 100 µM, the TGI [8] was over 100 µM and the TGI [9] was over 100 µM. It also gave a TGI [10] of over 100 µM, a TGI [11] of over 100 µM and a TGI [12] of over 100 µM. It also gave a TGI [13] of over 100 µM, a TGI [14] of over 100 µM and a TGI [15] of over 100 µM. It also gave a TGI [16] of over 100 µM, a TGI [17] of over 100 µM and a TGI [18] of over 100 µM. The TGI [19] was over 100 µM, the TGI [20] was over 100 µM and the TGI [21] was over 100 µM. It also gave a TGI [22] of over 100 µM, a TGI [23] of over 100 µM and a TGI [24] of over 100 µM. It also gave a TGI [25] of over 100 µM, a TGI [26] of 78.1 µM and a TGI [27] of over 100 µM. For the same compound, the TGI [28] was over 100 µM, the TGI [29] was over 100 µM and the TGI [30] was over 100 µM. It also gave a TGI [31] of over 100 µM, a TGI [32] of 57.1 µM and a TGI [33] of over 100 µM. For the same compound, the TGI [34] was over 100 µM, the TGI [35] was over 100 µM and the TGI [36] was over 100 µM. For the same compound, the TGI [37] was over 100 µM, the TGI [38] was over 100 µM and the TGI [39] was over 100 µM. It also gave a TGI [40] of over 100 µM, a TGI [41] of over 100 µM and a TGI [42] of over 100 µM. For the same compound, the TGI [43] was over 100 µM, the TGI [44] was over 100 µM and the TGI [45] was over 100 µM. It also gave a TGI [46] of over 100 µM, a TGI [47] of 71.9 µM and a TGI [48] of over 100 µM. For the same compound, the TGI [49] was over 100 µM, the TGI [50] was over 100 µM and the TGI [51] was over 100 µM. For the same compound, the TGI [52] was over 100 µM and the TGI [53] was over 100 µM.
With `COc1ccc(-c2ncnc(-c3ccc(OC)c(OC)c3)n2)cc1OC` the TGI [1] was over 100 µM, the TGI [54] was over 100 µM and the TGI [55] was over 100 µM. For the same compound, the TGI [2] was over 100 µM, the TGI [3] was over 100 µM and the TGI [4] was over 100 µM. For the same compound, the TGI [5] was over 100 µM, the TGI [56] was over 100 µM and the TGI [6] was over 100 µM. It also gave a TGI [7] of over 100 µM, a TGI [8] of over 100 µM and a TGI [10] of over 100 µM. It also gave a TGI [11] of over 100 µM, a TGI [12] of over 100 µM and a TGI [13] of over 100 µM. The TGI [14] was over 100 µM, the TGI [15] was over 100 µM and the TGI [16] was over 100 µM. It also gave a TGI [18] of over 100 µM, a TGI [19] of over 100 µM and a TGI [20] of over 100 µM. The TGI [21] was over 100 µM, the TGI [22] was over 100 µM and the TGI [23] was over 100 µM. It also gave a TGI [24] of over 100 µM, a TGI [25] of over 100 µM and a TGI [26] of over 100 µM. It also gave a TGI [27] of over 100 µM, a TGI [28] of over 100 µM and a TGI [29] of over 100 µM. The TGI [30] was over 100 µM, the TGI [31] was over 100 µM and the TGI [32] was over 100 µM. It also gave a TGI [33] of over 100 µM, a TGI [57] of over 100 µM and a TGI [34] of over 100 µM. It also gave a TGI [35] of over 100 µM, a TGI [37] of over 100 µM and a TGI [38] of over 100 µM. For the same compound, the TGI [39] was over 100 µM, the TGI [40] was over 100 µM and the TGI [41] was over 100 µM. For the same compound, the TGI [42] was over 100 µM, the TGI [43] was over 100 µM and the TGI [58] was over 100 µM. The TGI [44] was over 100 µM, the TGI [45] was over 100 µM and the TGI [46] was over 100 µM. For the same compound, the TGI [48] was over 100 µM, the TGI [49] was over 100 µM and the TGI [51] was over 100 µM. The TGI [52] was over 100 µM.
With `[N-]=[N+]=NCC1OCC(O)C(OCc2ccccc2)C1OCc1ccccc1` (configuration not stated) the TGI [54] was over 100 µM, the TGI [55] was over 100 µM and the TGI [2] was over 100 µM. The TGI [3] was over 100 µM, the TGI [4] was over 100 µM and the TGI [5] was over 100 µM. The TGI [56] was over 100 µM, the TGI [6] was over 100 µM and the TGI [7] was over 100 µM. It also gave a TGI [8] of over 100 µM, a TGI [9] of over 100 µM and a TGI [10] of over 100 µM. For the same compound, the TGI [11] was over 100 µM, the TGI [12] was over 100 µM and the TGI [13] was over 100 µM. The TGI [14] was over 100 µM, the TGI [15] was over 100 µM and the TGI [16] was over 100 µM. The TGI [17] was over 100 µM, the TGI [18] was over 100 µM and the TGI [19] was over 100 µM. It also gave a TGI [20] of over 100 µM, a TGI [21] of over 100 µM and a TGI [22] of over 100 µM. For the same compound, the TGI [23] was over 100 µM, the TGI [59] was over 100 µM and the TGI [24] was over 100 µM. It also gave a TGI [25] of over 100 µM, a TGI [26] of over 100 µM and a TGI [27] of over 100 µM. The TGI [28] was over 100 µM, the TGI [29] was over 100 µM and the TGI [30] was over 100 µM. For the same compound, the TGI [31] was over 100 µM, the TGI [32] was over 100 µM and the TGI [33] was over 100 µM. The TGI [57] was over 100 µM, the TGI [34] was over 100 µM and the TGI [35] was over 100 µM. The TGI [36] was over 100 µM, the TGI [37] was over 100 µM and the TGI [38] was over 100 µM. The TGI [39] was over 100 µM, the TGI [40] was over 100 µM and the TGI [41] was over 100 µM. The TGI [42] was over 100 µM, the TGI [43] was over 100 µM and the TGI [58] was over 100 µM. For the same compound, the TGI [44] was over 100 µM, the TGI [45] was over 100 µM and the TGI [46] was over 100 µM. For the same compound, the TGI [47] was over 100 µM, the TGI [48] was over 100 µM and the TGI [49] was over 100 µM. It also gave a TGI [50] of over 100 µM, a TGI [52] of over 100 µM and a TGI [53] of over 100 µM.
